From patent US8465963B2, “Grass endophyte enhanced attributes” (priority 2005, dated 2013)

Columns and labels:
[1] = test system: Neotyphodium endophytes in perennial ryegrass; conditions: fungicide soak; cited from earlier work
[2] = test system: Neotyphodium endophytes in tall fescue; conditions: fungicide soak; cited from earlier work
[3] = test system: endophytes (AR502, AR542 and AR584); experiment: Trial 1 field trial: effect of fungicides on viable endophytes, means over endophytes; conditions: means of all other treatments
Text: The pH of the solution is 7.5.

[4] = test system: ryegrass (Lolium perenne) seed infected with Neotyphodium endophyte; conditions: prochloraze 1 g/kg; triticonazole 5 and 10 g/kg; cited from earlier work

SMILES	effect of fungicide on endophyte [1]	effect of fungicide on endophyte [2]	level of viable endophyte [3]	seed germination [4]
COC(=O)NC(=S)Nc1ccccc1NC(=S)NC(=O)OC [Thiophanate-methyl]	little effect on endophyte	no effect on endophyte	–	–
O=CNC(N1CCN(C(NC=O)C(Cl)(Cl)Cl)CC1)C(Cl)(Cl)Cl (stereo not drawn) [Triforine]	effective in some perennial ryegrass plants	effective in tall fescue	–	–
CCCCNC(=O)n1c(NC(=O)OC)nc2ccccc21 [benomyl]	effective in killing endophyte	effective in killing endophyte	–	–
Fc1ccc([C@]2(Cn3cncn3)O[C@H]2c2ccccc2Cl)cc1 [epiconazole]	–	–	most significantly reducing viable endophyte levels	–
CCCN(CCOc1c(Cl)cc(Cl)cc1Cl)C(=O)n1ccnc1 [prochloraze]	–	–	–	effected
CC1(C)CCC(=Cc2ccc(Cl)cc2)C1(O)Cn1cncn1 (stereo not drawn) [triticonazole]	–	–	–	effected
